Entries after “also recorded” stand apart in the source; their conditions may differ.
Assays:
[1] = test system: bovine brain capillary endothelial cells in co-culture with astrocytes; test: Determination of lactate dehydrogenase (LDH) in the medium of endothelial cells in coculture; format: cell-based
Method: In the same experiments, lactate dehydrogenase was assayed in the medium in order to check the toxicity. This cytoplasmic enzyme is not able to cross the cellular membrane except if the membrane integrity is destroyed. An increase in the release of Lactate Dehydrogenase (LDH) indicates a breakdown of the cellular membrane, leading to a cellular death. In other words, the LDH determination in the medium allows an assessment of cell viability. […]

[2] = test system: bovine brain capillary endothelial cells (actin filaments); test: Actin staining of endothelial cells (fluorescent microscopy); format: cell-based
Method: To investigate the origin of this modification of the permeability, fluorescent microscopy studies were undertaken. Actin filaments were localized with bodipy phallo?din (explanations in section 7.1.).
The medium was removed and filter-grown endothelial cells were washed gently twice with Ringer-Hepes buffer.
Filter-grown endothelial cells were fixed in 4% PAF (paraformadehyde, in PHS buffer supplemented with MgCl2, 2 mM and EGTA, 10 mM) for 15 min at 4° C.
PAF was removed and filter-grown endothelial cells were washed once with PHEMS buffer. The filter-grown endothelial cells can be stored in PHEMS buffer at 4° C.
The filter-grown endothelial cells were cut up in eight pieces in a large PHEMS buffer drop and stored in PHEMS. One piece was permeabilized with acetone at -20° C. for 1 min then stored in PHEMS buffer.
Actin filaments were localized with bodipy phallo?din (Molecular Probes, Inc.). The stain was dissolved in 1.5 ml of methanol (200 units/ml) but was used at 5 units/ml. 5 μl of stock solution was evaporated and redissolved in 200 μl of PHS buffer.
1/8 of permeabilized filter-grown endothelial cells was covered with 25 to 50 μl of stain solution, 30 min at room temperature in darkroom. The filter bearing the endothelial cells was rinsed twice with PHEMS buffer, once with water.
The filter-grown endothelial cells were mounted cell-side up on a microscope slide in mowiol. And was examined on a Leitz DMR microscope using oil immersion objectives.

[3] = test system: ipsilateral hemisphere of the brain; test: Methotrexate content of brains of rats pretreated with M3,14 (DP-BFA); format: in vivo, rat; settings: intra-arterial pre-treatment, carotid artery
[4] = test system: rats; settings: rat, in vivo
[5] = test system: mice; test: Acute intravenous toxicity test in mice; format: in vivo; settings: i.v.
Method: (§1) An acute intravenous toxicity test was performed to study the toxicity of the branched fatty acids in mice. The study included mortality and behavioral observations during three days. The rate of mortality is represented in the Table 5. M 3/14 caused mortality at a dose of 175 mg/kg; M3/12 at a dose of 75 mg/kg and M 3/10 at a dose of 100 mg/kg. Death was observed ten minutes after i.v. injection. In sub-lethal doses no significant behavior changes were observed.

[6] = Acute intravenous toxicity test in mice; format: in vivo; settings: mouse, in vivo; intravenous administration to mice
Method: as §1

[7] = Stability and solution appearance of DP-BFA; format: physicochemical
Method: DP-BFA is stored in a hermetically sealed dark vial filled with Argon at 5° C. for up to 3 months. The drug quantity was taken out the vial cap with a Teflon spatula. The compound was dissolved in sodium carbonate-sodium bicarbonate buffered saline solution adjusted to pH 8.8-9 at 37° C. A stock solution (12.8 mg/ml) was prepared and kept at 37° C. for 15 minutes. The solution was protected from light by covering it with aluminium foil. […] The desired concentration of DP-BFA was obtained by diluting the stock solution with the buffer. The solutions were filtered through a […] filter. The DP-BFA solutions were kept at 37° C. in vials protected from light, for no more than 6 hours.

[8] = test system: rodent brains; test: Neurotoxicity by histopathology on fixed sectioned rodent brains; format: in vivo, rat; settings: 20 or 200 μg/ml via internal carotid artery, 3 or 72 hr post infusion
Method: Potential neurotoxicity after treatment with M 3,14 was assessed by means of histopathology on fixed sectioned rodent brains.
Nine rodent brains were fixed in 10% neutral buffered formalin. These brains were obtained from rats infused with either buffer, 20 μg/ml, or 200 μg/ml M3,14 via the left internal carotid artery. The experiment was terminated and the samples collected either 3 or 72 hr. post infusion. Specimen and group identification were as follows:
control: 3 hr (2), 72 hr (1);
Upon receipt, coronal sections were prepared through the forebrain, midbrain and hindbrain. The right-left orientation was identified by placing a small cut in the cortex on the right side of the section. The sections were embedded as a single block, processed routinely in paraffin, sectioned at five microns and stained with hematoxylin and eosin. Sections were evaluated qualitatively.

[9] = test system: rat brain; test: Water concentration in the rat brain after intra-arterial administration (cerebral edema); format: in vivo; settings: 20 μg/ml, 24 h
Method: The rats were treated by intraarterial infusion of M 3/14 20 μg/ml or phosphate buffered saline as control. After 24 hours the rats were decapitated, the brain was removed and dried at 110° C. until constant weight was achieved (normally three days). The percent water was calculated by the following equation:
% water=(wet sample weight-dry sample weight)×100/(wet sample weight)
This procedure is according to Karpiak and Mahadik (1984, J. Neurosci. Res. 12, 485-492).

In the case of `CCCCCCCCCCCCCCC(CCC)C(=O)O` (stereo not drawn) [M 3/14, 2-propylhexadecanoic acid], the LDH release ([1]; 0.16 mg/ml, 24 hrs incubation) is reported as “significant increase in LDH release”, the cytotoxic effect ([1]; 0.16 mg/ml, 24 hrs incubation) is reported as “cytotoxic effect” and the LDH release ([1]; 1 hr incubation, paracellular study) is reported as “no significant increase in LDH release”. For the same compound, the LDH release ([1]; 1 hr incubation, transcellular study) was “No increase in release of LDH”, the cytotoxic effect ([1]; 1 hr incubation, listed as DP-BFA) was “No cytotoxic effect; also recorded: not associated with cytotoxic effects” and the cytotoxic effect ([1]; 24 hrs reversibility study) was “No cytotoxic effect”. For the same compound, the LDH release ([1]; after 1 hr and after 24 hrs reversibility study) was “No increase in release of LDH”, the LDH release ([1]; reversibility kinetic study) was “No increase in release of LDH” and the cytotoxic effect ([1]; reversibility kinetic study) was “No cytotoxic effect”. The endothelial cell morphology ([2]; 0.08 mg/ml, 24 hrs) was “significant morphological changes”, the “stress fibers (actin staining)” value ([2]; 0.08 mg/ml, 24 hrs) was “increase in numerous densely packed stress fibers” and the “stress fibers (actin staining)” value ([2]; 0.16 mg/ml 1 hr, then 24 hrs without DP-BFA) was “less densely packed stress fibers”. For the same compound, the endothelial cell morphology ([2]; 0.16 mg/ml, 1 hr) was “significant morphological changes”, the “stress fibers (actin staining)” value ([2]; 0.16 mg/ml, 1 hr) was “increase in numerous densely packed stress fibers” and the interendothelial cell gaps ([2]; 0.16 mg/ml, 24 hrs) was “Interendothelial cell gaps in the monolayer could be seen”. The “penetration of MTX into the ipsilateral hemisphere” value [3] was “significantly increased the penetration of MTX”, the “brain edema or general edema” value [4] was “no brain edema or general edema was observed” and the change of behavior [4] was “No change of behavior was observed”. The Mortality ([5]; 50 mg/kg, 5 mg/ml) was 0/3, the Mortality ([5]; 100 mg/kg, 5 mg/ml) was 0/3 and the Mortality ([5]; 150 mg/kg, 10 mg/ml) was 0/3. For the same compound, the Mortality ([5]; 175 mg/kg, 10 mg/ml) was 3/3, the dose causing mortality ([5]; mice, three days) was 175 mg/kg and the LD50 at 72 h [6] was 150 to 175 mg/kg. The “appearance of stock solution” value ([7]; 12.8 mg/ml, carbonate-bicarbonate buffered saline, pH 8.8-9, 37° C.) was “completely transparent”, the “stability (sensitivity to light, CO2)” value ([7]; white powder, sodium salt) was “sensitive to light and atmospheric CO2” and the “histopathology (neurotoxicity)” value ([8]; listed as M 3,14) was “no treatment related changes observed”. For the same compound, the “histopathology (neurotoxicity)” value ([8]; listed as M3,14) was “No treatment related changes were observed”, the cerebral edema [9] was “no cerebral edema effect” and the “water content of brain, treated vs non treated rats” value [9] was “no significant difference”. For the same compound, the Brain weight ([9]; intra-arterial) was 1.494 g, the “Brain weight after drying” value ([9]; intra-arterial) was 0.311 g and the Water ([9]; intra-arterial) was 79.19%.
